# Measured values as given in paper PMC6931042 (Bioorganic chemistry, 2018).
# Where “and” joins values, the source holds several entries; their conditions need not be identical. Equal entries are not always repeated. Where two headings read alike, the source gives them in different places.
# Assays:
# MDA-MB-468 = assay: NCI in vitro five dose anticancer assay; assay type: cell-based, human
# COLO 205 = assay: NCI in vitro five dose anticancer assay; assay type: cell-based, human
# CCRF-CEM = assay: NCI in vitro five dose anticancer assay; assay type: cell-based, human
# HL-60(TB) = assay: NCI in vitro five dose anticancer assay; assay type: cell-based, human
# [1] = test system: p53, p21, cyclin B1 and Cdc2 in A549 cells; assay: Western blotting, p53 and cell cycle regulators; assay type: cell-based, human; details: 1, 3 and 6 μM, western blot; for expression of Cdc2 / expression of cyclin B1 / expression of p21: dose dependent
# NCI-H522 = assay: NCI in vitro five dose anticancer assay; assay type: cell-based, human
# MDA-MB231/ATCC = assay: NCI in vitro five dose anticancer assay; assay type: cell-based, human
# NCI-H226 = assay: NCI in vitro five dose anticancer assay; assay type: cell-based, human
# A549 and K-562 cells = assay: Cytotoxicity IC50 stated jointly for the 2 cell lines; assay type: cell-based, human; details: read-out: IC50 against the 2 cell lines tested
# SNB-19 = assay: NCI in vitro five dose anticancer assay; assay type: cell-based, human
# IGROV1 = assay: NCI in vitro five dose anticancer assay; assay type: cell-based, human
# SK-MEL-2 = assay: NCI in vitro five dose anticancer assay; assay type: cell-based, human
# SK-MEL-28 = assay: NCI in vitro five dose anticancer assay; assay type: cell-based, human
# TK-10 = assay: NCI in vitro five dose anticancer assay; assay type: cell-based, human
# MALME-3M = assay: NCI in vitro five dose anticancer assay; assay type: cell-based, human
# 786–0 = assay: NCI in vitro five dose anticancer assay; assay type: cell-based, human
# NCI-H460 = assay: NCI in vitro five dose anticancer assay; assay type: cell-based, human
# A549 cells = assay: Apoptosis, annexin V-FITC/PI flow cytometry; assay type: cell-based, human; details: for percentage of apoptotic cells: 48 h; for proportion of apoptotic cells compared to control: 1, 3, or 6 μM, 24 h, data not shown
# [2] = test system: p53, p21, cyclin B1 and Cdc2 in K-562 cells; assay: Western blotting, p53 and cell cycle regulators; assay type: cell-based, human; details: 1, 3 and 6 μM, western blot; for expression of Cdc2 / expression of cyclin B1 / expression of p21: dose dependent
# K-562 = assay: NCI in vitro five dose anticancer assay; assay type: cell-based, human
# K-562 cells = assay: Apoptosis, annexin V-FITC/PI flow cytometry; assay type: cell-based, human; details: 24 h
# [3] = test system: chronic myeloid leukemia K-562; assay: Trypan blue exclusion cytotoxicity assay
# MDA-MB-435 = assay: NCI in vitro five dose anticancer assay; assay type: cell-based, human
# T-47D = assay: NCI in vitro five dose anticancer assay; assay type: cell-based, human
# SN12C = assay: NCI in vitro five dose anticancer assay; assay type: cell-based, human
# HOP-92 = assay: NCI in vitro five dose anticancer assay; assay type: cell-based, human
# [4] = test system: p-PI3K, p-Akt, p-mTOR and p-GSK-3β in K-562 cells; assay: Western blotting, PI3K/Akt/mTOR pathway; assay type: cell-based, human; details: 1, 3, or 6 μM, western blot, dose-dependent
# UACC-62 = assay: NCI in vitro five dose anticancer assay; assay type: cell-based, human
# M14 = assay: NCI in vitro five dose anticancer assay; assay type: cell-based, human
# MOLT-4 = assay: NCI in vitro five dose anticancer assay; assay type: cell-based, human
# RXF 393 = assay: NCI in vitro five dose anticancer assay; assay type: cell-based, human
# SF-268 = assay: NCI in vitro five dose anticancer assay; assay type: cell-based, human
# PI3K-α = PI3K-α (Homo sapiens, UniProt P42336); assay: PI3K biochemical assay
# SF-539 = assay: NCI in vitro five dose anticancer assay; assay type: cell-based, human
# HT29 = assay: NCI in vitro five dose anticancer assay; assay type: cell-based, human
# A549/ATCC = assay: NCI in vitro five dose anticancer assay; assay type: cell-based, human
# NCI/ADR-RES = assay: NCI in vitro five dose anticancer assay; assay type: cell-based, human
# PI3K-δ = PI3K-δ (Homo sapiens, UniProt O00329); assay: PI3K biochemical assay
# OVCAR-3 = assay: NCI in vitro five dose anticancer assay; assay type: cell-based, human
# OVCAR-5 = assay: NCI in vitro five dose anticancer assay; assay type: cell-based, human
# [5] = test system: human lung adenocarcinoma A549; assay: Trypan blue exclusion cytotoxicity assay
# class I PI3K enzymes = assay: PI3K biochemical assay, all isoforms stated jointly; details: read-out: IC50s against the different PI3K isoforms; range over PI3K-α, β, γ, δ
# PI3K-γ = PI3K-γ (Homo sapiens, UniProt P48736); assay: PI3K biochemical assay
# [6] = Non-small cell lung cancer, five dose assay
# [7] = read-out: K-562 (IC50 μM), trypan blue exclusion, 24 h, mean ± SD
# [8] = Ovarian cancer, five dose assay
# [9] = read-out: A549 (IC50 μM), trypan blue exclusion, 24 h, mean ± SD
# PI3K-γ, sequence (P48736 whole entry): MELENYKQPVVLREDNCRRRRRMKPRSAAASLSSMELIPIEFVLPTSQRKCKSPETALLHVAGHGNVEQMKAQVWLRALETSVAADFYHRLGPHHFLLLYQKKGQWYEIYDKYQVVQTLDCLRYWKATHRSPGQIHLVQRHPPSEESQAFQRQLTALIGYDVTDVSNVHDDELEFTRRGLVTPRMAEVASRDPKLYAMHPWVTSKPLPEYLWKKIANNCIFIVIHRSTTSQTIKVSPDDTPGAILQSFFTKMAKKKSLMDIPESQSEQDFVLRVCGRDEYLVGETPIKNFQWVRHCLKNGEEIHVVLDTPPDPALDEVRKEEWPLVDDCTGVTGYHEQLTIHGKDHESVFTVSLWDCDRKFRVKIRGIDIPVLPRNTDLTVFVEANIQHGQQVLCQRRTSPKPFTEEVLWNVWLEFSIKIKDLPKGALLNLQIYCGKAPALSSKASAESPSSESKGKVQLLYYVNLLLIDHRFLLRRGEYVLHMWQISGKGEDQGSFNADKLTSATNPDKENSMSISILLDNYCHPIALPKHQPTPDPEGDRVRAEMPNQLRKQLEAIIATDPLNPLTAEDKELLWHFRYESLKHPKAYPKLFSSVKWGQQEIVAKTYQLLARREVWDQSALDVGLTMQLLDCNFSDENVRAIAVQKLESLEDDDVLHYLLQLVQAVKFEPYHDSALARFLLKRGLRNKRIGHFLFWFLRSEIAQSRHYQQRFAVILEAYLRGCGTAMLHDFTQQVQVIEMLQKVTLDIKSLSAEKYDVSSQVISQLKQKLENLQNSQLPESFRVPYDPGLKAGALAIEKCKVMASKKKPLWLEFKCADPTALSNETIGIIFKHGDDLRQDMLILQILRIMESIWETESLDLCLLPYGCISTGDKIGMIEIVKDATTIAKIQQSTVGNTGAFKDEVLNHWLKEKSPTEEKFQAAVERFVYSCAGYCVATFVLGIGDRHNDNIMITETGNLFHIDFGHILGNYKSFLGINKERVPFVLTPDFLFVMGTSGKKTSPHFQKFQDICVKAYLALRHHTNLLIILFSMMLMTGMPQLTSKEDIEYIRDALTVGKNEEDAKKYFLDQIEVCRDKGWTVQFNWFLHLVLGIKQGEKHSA
# PI3K-δ, sequence (O00329 whole entry): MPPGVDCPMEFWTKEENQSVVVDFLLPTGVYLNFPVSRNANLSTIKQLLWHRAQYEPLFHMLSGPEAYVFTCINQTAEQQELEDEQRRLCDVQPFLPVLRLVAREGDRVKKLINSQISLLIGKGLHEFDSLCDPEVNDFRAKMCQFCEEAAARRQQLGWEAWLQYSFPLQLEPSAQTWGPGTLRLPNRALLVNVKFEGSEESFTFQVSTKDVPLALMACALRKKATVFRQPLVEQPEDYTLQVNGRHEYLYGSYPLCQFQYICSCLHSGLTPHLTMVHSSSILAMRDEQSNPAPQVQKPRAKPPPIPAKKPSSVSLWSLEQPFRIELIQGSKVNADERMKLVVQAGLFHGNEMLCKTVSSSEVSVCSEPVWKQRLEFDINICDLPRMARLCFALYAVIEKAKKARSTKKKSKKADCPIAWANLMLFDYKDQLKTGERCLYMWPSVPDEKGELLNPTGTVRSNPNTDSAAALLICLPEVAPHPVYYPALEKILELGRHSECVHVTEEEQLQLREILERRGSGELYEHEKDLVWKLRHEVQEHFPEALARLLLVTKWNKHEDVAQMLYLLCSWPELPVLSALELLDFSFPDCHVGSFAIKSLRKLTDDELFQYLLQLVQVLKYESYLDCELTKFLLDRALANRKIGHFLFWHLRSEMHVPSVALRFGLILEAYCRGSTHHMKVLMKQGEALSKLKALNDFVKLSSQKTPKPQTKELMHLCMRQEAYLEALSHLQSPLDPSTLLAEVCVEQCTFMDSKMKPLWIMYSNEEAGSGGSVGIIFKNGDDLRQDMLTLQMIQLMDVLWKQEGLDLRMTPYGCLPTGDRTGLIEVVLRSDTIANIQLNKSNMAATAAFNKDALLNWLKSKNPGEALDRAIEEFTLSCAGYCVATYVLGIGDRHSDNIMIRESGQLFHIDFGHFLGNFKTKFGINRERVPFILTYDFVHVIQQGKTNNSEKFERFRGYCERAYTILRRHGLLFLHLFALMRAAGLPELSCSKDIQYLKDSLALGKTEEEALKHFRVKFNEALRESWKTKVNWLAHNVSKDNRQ
# PI3K-δ, sequence (P27986 whole entry partner): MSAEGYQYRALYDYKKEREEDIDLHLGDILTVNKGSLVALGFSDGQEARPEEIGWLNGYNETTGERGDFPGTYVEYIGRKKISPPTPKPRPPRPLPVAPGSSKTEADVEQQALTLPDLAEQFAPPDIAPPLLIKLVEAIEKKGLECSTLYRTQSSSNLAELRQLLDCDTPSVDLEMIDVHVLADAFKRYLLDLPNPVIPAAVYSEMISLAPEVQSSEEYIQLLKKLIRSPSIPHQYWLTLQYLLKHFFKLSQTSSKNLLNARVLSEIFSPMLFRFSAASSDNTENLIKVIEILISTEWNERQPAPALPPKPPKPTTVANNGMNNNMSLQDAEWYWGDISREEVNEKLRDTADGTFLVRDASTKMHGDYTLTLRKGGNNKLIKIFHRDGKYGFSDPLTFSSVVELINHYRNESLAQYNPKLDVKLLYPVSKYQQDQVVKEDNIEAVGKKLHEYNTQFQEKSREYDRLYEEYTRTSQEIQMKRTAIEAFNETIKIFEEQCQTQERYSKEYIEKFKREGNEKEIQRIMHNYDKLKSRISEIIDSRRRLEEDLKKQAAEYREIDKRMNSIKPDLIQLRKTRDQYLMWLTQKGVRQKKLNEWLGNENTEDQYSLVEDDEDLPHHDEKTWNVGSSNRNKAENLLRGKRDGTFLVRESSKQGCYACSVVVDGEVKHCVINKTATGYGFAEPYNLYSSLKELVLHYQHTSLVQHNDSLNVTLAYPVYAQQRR
# PI3K-α, sequence (P42336 whole entry): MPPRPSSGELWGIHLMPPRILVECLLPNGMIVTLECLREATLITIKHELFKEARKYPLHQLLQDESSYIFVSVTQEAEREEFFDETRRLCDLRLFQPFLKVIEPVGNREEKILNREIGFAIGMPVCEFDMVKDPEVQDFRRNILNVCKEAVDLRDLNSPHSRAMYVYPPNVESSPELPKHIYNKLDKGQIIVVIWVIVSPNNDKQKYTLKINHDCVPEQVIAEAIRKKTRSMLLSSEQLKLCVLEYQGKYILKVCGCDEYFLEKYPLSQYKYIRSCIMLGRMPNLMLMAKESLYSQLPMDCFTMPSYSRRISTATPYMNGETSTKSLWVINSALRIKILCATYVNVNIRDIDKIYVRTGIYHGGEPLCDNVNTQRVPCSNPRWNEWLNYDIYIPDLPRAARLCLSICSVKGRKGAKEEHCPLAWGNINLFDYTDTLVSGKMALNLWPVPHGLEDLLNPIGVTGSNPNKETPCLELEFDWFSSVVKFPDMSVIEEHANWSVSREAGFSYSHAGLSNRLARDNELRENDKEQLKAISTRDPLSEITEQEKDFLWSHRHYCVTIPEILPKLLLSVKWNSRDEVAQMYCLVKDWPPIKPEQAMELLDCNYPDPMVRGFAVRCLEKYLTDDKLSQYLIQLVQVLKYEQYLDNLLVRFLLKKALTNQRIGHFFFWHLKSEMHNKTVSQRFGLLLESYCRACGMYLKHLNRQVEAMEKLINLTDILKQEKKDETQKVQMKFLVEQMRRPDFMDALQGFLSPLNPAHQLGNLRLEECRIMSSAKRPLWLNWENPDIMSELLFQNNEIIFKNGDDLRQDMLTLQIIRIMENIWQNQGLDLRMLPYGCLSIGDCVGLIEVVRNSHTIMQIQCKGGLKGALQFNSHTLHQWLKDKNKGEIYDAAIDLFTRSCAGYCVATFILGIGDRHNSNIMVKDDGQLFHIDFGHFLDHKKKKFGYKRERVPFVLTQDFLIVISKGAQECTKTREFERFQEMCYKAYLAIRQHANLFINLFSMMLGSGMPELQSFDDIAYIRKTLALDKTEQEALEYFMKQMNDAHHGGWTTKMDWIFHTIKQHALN
# PI3K-α, sequence (P27986 whole entry partner): as the sequence (P27986 whole entry partner) above
smiles,measurement,setting,value
"COc1ccc(-c2cc(C(=O)NN=C(/C=C\c3ccc(Cl)cc3)c3ccc(N)cc3)c3ccccc3n2)cc1 [Compound 9i, N’-((Z)-1-(4-Aminophenyl)-3-(4-chlorophenyl)allylidene)-2-(4-methoxphenyl)quinoline-4-carbohydrazide]",GI50,"MDA-MB-468; Breast cancer, five dose assay",2950 nM
same,GI50,"COLO 205; Colon cancer, five dose assay",1990 nM
same,GI50,"CCRF-CEM; Leukemia, five dose assay",5840 nM
same,GI50,"HL-60(TB); Leukemia, HL-60(TB), five dose assay",2540 nM
same,expression of wild type p53,[1],upregulated
same,expression of Cdc2,[1],attenuated
same,expression of cyclin B1,[1],attenuated
same,expression of p21,[1],significantly induced
same,GI50,NCI-H522; [6],307 nM
same,GI50,"MDA-MB231/ATCC; Breast cancer, MDA-MB231/ATCC, five dose assay",3280 nM
same,GI50,NCI-H226; [6],7540 nM
same,IC50,A549 and K-562 cells; range over A549 and K-562,1910 to 5290 nM
same,GI50,"SNB-19; CNS cancer, five dose assay",5540 nM
same,GI50,"IGROV1; Ovarian cancer, IGROV1, five dose assay",4980 nM
same,GI50,"SK-MEL-2; Melanoma, five dose assay",2030 nM
same,GI50,"SK-MEL-28; Melanoma, five dose assay",3780 nM
same,GI50,"TK-10; Renal cancer, five dose assay",52300 nM
same,GI50,"MALME-3M; Melanoma, MALME-3M, five dose assay",> 100000 nM
same,GI50,"786–0; Renal cancer, 786–0, five dose assay",1840 nM
same,GI50,NCI-H460; [6],1890 nM
same,percentage of apoptotic cells,A549 cells; 1 μM,13.21%
same,percentage of apoptotic cells,A549 cells; 3 μM,22.73%
same,percentage of apoptotic cells,A549 cells; 6 μM,35.9%
same,proportion of apoptotic cells compared to control,A549 cells,did not result in changes
same,expression of non-functional p53,[2],no effect
same,expression of Cdc2,[2],attenuated
same,expression of cyclin B1,[2],attenuated
same,expression of p21,[2],significantly induced
same,GI50,"K-562; Leukemia, K-562, five dose assay",1050 nM
same,percentage of apoptotic cells,K-562 cells; 1 μM,25.79%
same,percentage of apoptotic cells,K-562 cells; 3 μM,46.2%
same,percentage of apoptotic cells,K-562 cells; 6 μM,46.6%
same,IC50,[3]; [7],1.9 µM and 1.91 µM
same,GI50,"MDA-MB-435; Melanoma, five dose assay",305 nM
same,GI50,"T-47D; Breast cancer, T-47D, five dose assay",2700 nM
same,GI50,"SN12C; Renal cancer, five dose assay",4270 nM
same,GI50,HOP-92; [6],1920 nM
same,levels of phosphorylated Akt (at Ser473),[4],decreases
same,levels of phosphorylated GSK-3β,[4],decreases
same,levels of phosphorylated PI3K (at Tyr458),[4],decreases
same,levels of phosphorylated mTOR (at Ser2448),[4],decreases
same,GI50,"UACC-62; Melanoma, five dose assay",556 nM
same,GI50,"M14; Melanoma, five dose assay",1160 nM
same,GI50,"MOLT-4; Leukemia, five dose assay",3300 nM
same,GI50,"RXF 393; Renal cancer, five dose assay",698 nM
same,GI50,"SF-268; CNS cancer, five dose assay",2190 nM
same,IC50,"PI3K-α; read-out: IC50 (nM) PI3K-α, ADP-Glo, ATP 10 μM",248 nM
same,GI50,"SF-539; CNS cancer, five dose assay",1410 nM
same,GI50,"HT29; Colon cancer, HT29, five dose assay",1130 nM
same,GI50,"A549/ATCC; Non-small cell lung cancer, A549/ATCC, five dose assay",2330 nM
same,GI50,NCI/ADR-RES; [8],519 nM
same,IC50,"PI3K-δ; read-out: IC50 (nM) PI3K-δ, ADP-Glo, ATP 10 μM",438 nM
same,GI50,OVCAR-3; [8],462 nM
same,GI50,OVCAR-5; [8],5510 nM
same,IC50,[5]; [9],4 µM and 3.9 µM and 3.91 µM
same,IC50,class I PI3K enzymes,52 to 473 nM
same,IC50,"PI3K-γ; read-out: IC50 (nM) PI3K-γ, ADP-Glo, ATP 10 μM",52 nM
"Cc1ccc(-c2cc(C(=O)NN=C(/C=C\c3ccc(Cl)cc3)c3ccc(N)cc3)c3ccccc3n2)cc1 [Compound 9j, N’-((Z)-1-(4-Aminophenyl)-3-(4-chlorophenyl)allylidene)-2-(4-methylphenyl)quinoline-4-carbohydrazide]",GI50,MDA-MB-468; Homo sapiens,4910 nM
same,GI50,COLO 205; Homo sapiens,2800 nM
same,GI50,CCRF-CEM; Homo sapiens,4530 nM
same,GI50,"HL-60(TB); Homo sapiens, HL-60",3490 nM
same,expression of wild type p53,[1],upregulated
same,expression of Cdc2,[1],attenuated
same,expression of cyclin B1,[1],attenuated
same,expression of p21,[1],significantly induced
same,GI50,NCI-H522; Homo sapiens,622 nM
same,GI50,"MDA-MB231/ATCC; Homo sapiens, MDA-MB-231",3940 nM
same,GI50,NCI-H226; Homo sapiens,6470 nM
same,IC50,A549 and K-562 cells; Homo sapiens,1910 to 5290 nM
same,GI50,SNB-19; Homo sapiens,6510 nM
same,GI50,"IGROV1; Homo sapiens, IGROV-1",6480 nM
same,GI50,SK-MEL-2; Homo sapiens,3810 nM
same,GI50,SK-MEL-28; Homo sapiens,6230 nM
same,GI50,TK-10; Homo sapiens,8510 nM
same,GI50,"MALME-3M; Homo sapiens, Malme-3M",> 100000 nM
same,GI50,"786–0; Homo sapiens, 786-0",4220 nM
same,GI50,NCI-H460; Homo sapiens,3510 nM
same,percentage of apoptotic cells,A549 cells; 1 μM,14.68%
same,percentage of apoptotic cells,A549 cells; 3 μM,14.07%
same,percentage of apoptotic cells,A549 cells; 6 μM,28.1%
same,proportion of apoptotic cells compared to control,A549 cells,did not result in changes
same,expression of non-functional p53,[2],no effect
same,expression of Cdc2,[2],attenuated
same,expression of cyclin B1,[2],attenuated
same,expression of p21,[2],significantly induced
same,GI50,"K-562; Homo sapiens, K562",3090 nM
same,percentage of apoptotic cells,K-562 cells; 1 μM,16.65%
same,percentage of apoptotic cells,K-562 cells; 3 μM,39.4%
same,percentage of apoptotic cells,K-562 cells; 6 μM,47.1%
same,IC50,"[3]; Homo sapiens, K562, 24 h, read-out: K-562 (IC50 μM), trypan blue exclusion, mean ± SD",2.7 µM
same,IC50,[3]; [7],2.67 ± 0.27 µM
same,GI50,MDA-MB-435; Homo sapiens,1000 nM
same,GI50,"T-47D; Homo sapiens, T47D",2730 nM
same,GI50,SN12C; Homo sapiens,6840 nM
same,GI50,HOP-92; Homo sapiens,4100 nM
same,levels of phosphorylated Akt (at Ser473),[4],decreases
same,levels of phosphorylated GSK-3β,[4],decreases
same,levels of phosphorylated PI3K (at Tyr458),[4],decreases
same,levels of phosphorylated mTOR (at Ser2448),[4],decreases
same,GI50,UACC-62; Homo sapiens,2060 nM
same,GI50,M14; Homo sapiens,2540 nM
same,GI50,MOLT-4; Homo sapiens,3230 nM
same,GI50,RXF 393; Homo sapiens,1630 nM
same,GI50,SF-268; Homo sapiens,4090 nM
same,IC50,PI3K-α,271 nM
same,GI50,SF-539; Homo sapiens,2430 nM
same,GI50,"HT29; Homo sapiens, HT-29",3350 nM
same,GI50,"A549/ATCC; Homo sapiens, A549",4790 nM
same,GI50,NCI/ADR-RES; Homo sapiens,2540 nM
same,IC50,PI3K-δ,473 nM
same,GI50,OVCAR-3; Homo sapiens,2980 nM
same,GI50,OVCAR-5; Homo sapiens,8430 nM
same,IC50,"[5]; Homo sapiens, A549, 24 h, read-out: A549 (IC50 μM), trypan blue exclusion, mean ± SD",5 µM
same,IC50,[5]; [9],5.29 ± 0.19 µM
same,IC50,class I PI3K enzymes,52 to 473 nM
same,IC50,PI3K-γ,197 nM
